Test results reported in PubChem BioAssay AID1259407 (Chemical Carcinogenesis Research Information System (CCRIS), 2018).
Calls of active or inactive are those of the source. The rule behind the calls is not given here.

Tested on: CCRIS mutagenicity, Ames/micronucleus/aberration tests
Assay: CCRIS mutagenicity studies
[1] = Test System: AMES SALMONELLA TYPHIMURIUM, Strain/Indicator: TA98, Metabolic Activation: NONE, Method: STANDARD PLATE
[2] = Test System: AMES SALMONELLA TYPHIMURIUM, Strain/Indicator: TA98, Metabolic Activation: RAT, LIVER, S-9, AROCLOR 1254, Method: STANDARD PLATE
[3] = Test System: AMES SALMONELLA TYPHIMURIUM, Strain/Indicator: TA100, Metabolic Activation: NONE, Method: STANDARD PLATE
[4] = Test System: AMES SALMONELLA TYPHIMURIUM, Strain/Indicator: TA100, Metabolic Activation: RAT, LIVER, S-9, AROCLOR 1254, Method: STANDARD PLATE
[5] = Test System: AMES SALMONELLA TYPHIMURIUM, Strain/Indicator: TA1535, Metabolic Activation: NONE, Method: STANDARD PLATE

## N=C(N)S(=O)O
Test System: AMES SALMONELLA TYPHIMURIUM, Strain/Indicator: TA98, Metabolic Activation: NONE, Method: PREINCUBATION
  mutagenic call: inactive; negative
Test System: AMES SALMONELLA TYPHIMURIUM, Strain/Indicator: TA98, Metabolic Activation: RAT LIVER S-9, PHENOBARBITAL AND BETA-NAPHTHOFLAVONE, Method: PREINCUBATION
  mutagenic call: inactive; negative
Test System: AMES SALMONELLA TYPHIMURIUM, Strain/Indicator: TA100, Metabolic Activation: NONE, Method: PREINCUBATION
  mutagenic call: inactive; negative
Test System: AMES SALMONELLA TYPHIMURIUM, Strain/Indicator: TA100, Metabolic Activation: RAT LIVER S-9, PHENOBARBITAL AND BETA-NAPHTHOFLAVONE, Method: PREINCUBATION
  mutagenic call: inactive; negative
Test System: AMES SALMONELLA TYPHIMURIUM, Strain/Indicator: TA1535, Metabolic Activation: NONE, Method: PREINCUBATION
  mutagenic call: active; positive
Test System: AMES SALMONELLA TYPHIMURIUM, Strain/Indicator: TA1535, Metabolic Activation: RAT LIVER S-9, PHENOBARBITAL AND BETA-NAPHTHOFLAVONE, Method: PREINCUBATION
  mutagenic call: active; positive
Test System: AMES SALMONELLA TYPHIMURIUM, Strain/Indicator: TA1537, Metabolic Activation: NONE, Method: PREINCUBATION
  mutagenic call: inactive; negative
Test System: AMES SALMONELLA TYPHIMURIUM, Strain/Indicator: TA1537, Metabolic Activation: RAT LIVER S-9, PHENOBARBITAL AND BETA-NAPHTHOFLAVONE, Method: PREINCUBATION
  mutagenic call: inactive; negative
Test System: E.COLI, Strain/Indicator: WP2UVRA\PKM101, Metabolic Activation: NONE, Method: PREINCUBATION
  mutagenic call: inactive; negative
Test System: E.COLI, Strain/Indicator: WP2UVRA\PKM101, Metabolic Activation: RAT LIVER S-9, PHENOBARBITAL AND BETA-NAPHTHOFLAVONE, Method: PREINCUBATION
  mutagenic call: inactive; negative

## Clc1cccnc1
Test System: AMES SALMONELLA TYPHIMURIUM, Strain/Indicator: TA97, Metabolic Activation: NONE, Method: STANDARD PLATE
  mutagenic call: inactive; negative
Test System: AMES SALMONELLA TYPHIMURIUM, Strain/Indicator: TA97, Metabolic Activation: RAT, LIVER, S-9, AROCLOR 1254, Method: STANDARD PLATE
  mutagenic call: inactive; negative
[1]
  mutagenic call: inactive; negative
[2]
  mutagenic call: inactive; negative
[3]
  mutagenic call: inactive; negative
[4]
  mutagenic call: inactive; negative
Test System: AMES SALMONELLA TYPHIMURIUM, Strain/Indicator: TA102, Metabolic Activation: NONE, Method: STANDARD PLATE
  mutagenic call: inactive; negative
Test System: AMES SALMONELLA TYPHIMURIUM, Strain/Indicator: TA102, Metabolic Activation: RAT, LIVER, S-9, AROCLOR 1254, Method: STANDARD PLATE
  mutagenic call: inactive; negative
Test System: MOUSE LYMPHOMA, Strain/Indicator: L5178Y (TK+/TK-), Metabolic Activation: NONE
  mutagenic call: active; positive
Test System: MOUSE LYMPHOMA, Strain/Indicator: L5178Y (TK+/TK-), Metabolic Activation: RAT, LIVER, S-9, AROCLOR 1254
  mutagenic call: active; positive

## Nc1ccccc1C(F)(F)F
[1]
  mutagenic call: inactive; negative
[2]
  mutagenic call: inactive; negative
[3]
  mutagenic call: inactive; negative
[4]
  mutagenic call: inactive; negative
[5]
  mutagenic call: inactive; negative
Test System: AMES SALMONELLA TYPHIMURIUM, Strain/Indicator: TA1535, Metabolic Activation: RAT, LIVER, S-9, AROCLOR 1254, Method: STANDARD PLATE
  mutagenic call: inactive; negative
Test System: AMES SALMONELLA TYPHIMURIUM, Strain/Indicator: TA1537, Metabolic Activation: NONE, Method: STANDARD PLATE
  mutagenic call: inactive; negative
Test System: AMES SALMONELLA TYPHIMURIUM, Strain/Indicator: TA1537, Metabolic Activation: RAT, LIVER, S-9, AROCLOR 1254, Method: STANDARD PLATE
  mutagenic call: inactive; negative
Test System: AMES SALMONELLA TYPHIMURIUM, Strain/Indicator: TA1538, Metabolic Activation: NONE, Method: STANDARD PLATE
  mutagenic call: inactive; negative
Test System: AMES SALMONELLA TYPHIMURIUM, Strain/Indicator: TA1538, Metabolic Activation: RAT, LIVER, S-9, AROCLOR 1254, Method: STANDARD PLATE
  mutagenic call: inactive; negative

## COc1cccc2c1CC([N+](=O)[O-])c1ccc3c(c1-2)OCO3 (configuration not stated)
Test System: AMES SALMONELLA TYPHIMURIUM, Strain/Indicator: D3052, Metabolic Activation: NONE, Method: STANDARD PLATE
  mutagenic call: inactive; negative
Test System: AMES SALMONELLA TYPHIMURIUM, Strain/Indicator: D3052, Metabolic Activation: RAT, LIVER, S-9, PHENOBARBITAL, Method: STANDARD PLATE
  mutagenic call: inactive; negative
Test System: AMES SALMONELLA TYPHIMURIUM, Strain/Indicator: G46, Metabolic Activation: NONE, Method: STANDARD PLATE
  mutagenic call: inactive; negative
Test System: AMES SALMONELLA TYPHIMURIUM, Strain/Indicator: G46, Metabolic Activation: RAT, LIVER, S-9, PHENOBARBITAL, Method: STANDARD PLATE
  mutagenic call: inactive; negative
[1]
  mutagenic call: active; positive
Test System: AMES SALMONELLA TYPHIMURIUM, Strain/Indicator: TA98, Metabolic Activation: RAT, LIVER, S-9, PHENOBARBITAL, Method: STANDARD PLATE
  mutagenic call: active; positive
[3]
  mutagenic call: active; positive
Test System: AMES SALMONELLA TYPHIMURIUM, Strain/Indicator: TA100, Metabolic Activation: RAT, LIVER, S-9, PHENOBARBITAL, Method: STANDARD PLATE
  mutagenic call: active; positive
[5]
  mutagenic call: active; positive
Test System: AMES SALMONELLA TYPHIMURIUM, Strain/Indicator: TA1535, Metabolic Activation: RAT, LIVER, S-9, PHENOBARBITAL, Method: STANDARD PLATE
  mutagenic call: active; positive
Test System: AMES SALMONELLA TYPHIMURIUM, Strain/Indicator: TA1978, Metabolic Activation: NONE, Method: STANDARD PLATE
  mutagenic call: inactive; negative
Test System: AMES SALMONELLA TYPHIMURIUM, Strain/Indicator: TA1978, Metabolic Activation: RAT, LIVER, S-9, PHENOBARBITAL, Method: STANDARD PLATE
  mutagenic call: inactive; negative
